# Measurements published in publication PMC10176470, “Engaging a Non-catalytic Cysteine Residue Drives Potent and Selective Inhibition of Caspase-6” (Journal of the American Chemical Society, 2023).
# Where two headings read alike, the source gives them in different places.
# What was measured:
# Type in all cases: cell-based
# [1] = target: T1, proteins of HEK293T cells transiently overexpressing caspase-6 (Homo sapiens, UniProt Q02978); conditions: protein SLC25A11 (Q02978), analysis C6
# T1 sequence (Q02978 1-314): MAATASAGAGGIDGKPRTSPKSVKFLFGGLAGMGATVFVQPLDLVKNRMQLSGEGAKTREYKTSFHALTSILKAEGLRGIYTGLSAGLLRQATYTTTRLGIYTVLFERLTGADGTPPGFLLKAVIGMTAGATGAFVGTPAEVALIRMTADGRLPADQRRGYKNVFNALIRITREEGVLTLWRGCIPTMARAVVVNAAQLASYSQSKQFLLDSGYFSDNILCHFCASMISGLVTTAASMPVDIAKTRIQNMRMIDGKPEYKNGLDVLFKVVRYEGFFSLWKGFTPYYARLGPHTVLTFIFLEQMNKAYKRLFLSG
# [2] = target: proteins of HEK293T cells transiently overexpressing caspase-6 (Homo sapiens, UniProt P54886); conditions: exp_ref Probe; protein ALDH18A1 (P54886); analysis C6
# [3] = target: proteins of HEK293T cells transiently overexpressing caspase-6 (Homo sapiens, UniProt P36871); conditions: protein PGM1 (P36871); exp_ref Probe; analysis C6
# [4] = target: T2, proteins of HEK293T cells transiently overexpressing caspase-6 (Homo sapiens, UniProt Q13642)
# T2 sequence (Q13642 1-323): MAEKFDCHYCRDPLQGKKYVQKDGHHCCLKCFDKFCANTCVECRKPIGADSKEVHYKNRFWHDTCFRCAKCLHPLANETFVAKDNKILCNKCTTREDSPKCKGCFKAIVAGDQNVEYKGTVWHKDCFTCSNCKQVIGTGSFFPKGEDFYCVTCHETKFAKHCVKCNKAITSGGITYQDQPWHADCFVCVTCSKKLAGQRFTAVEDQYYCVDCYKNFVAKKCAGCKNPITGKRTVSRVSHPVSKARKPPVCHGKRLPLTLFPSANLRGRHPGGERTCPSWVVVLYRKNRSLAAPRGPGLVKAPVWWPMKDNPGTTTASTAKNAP
# [5] = target: T3, proteins of HEK293T cells transiently overexpressing caspase-6 (Homo sapiens, UniProt O95197); conditions: protein RTN3 (O95197)
# T3 sequence (O95197 1-1032): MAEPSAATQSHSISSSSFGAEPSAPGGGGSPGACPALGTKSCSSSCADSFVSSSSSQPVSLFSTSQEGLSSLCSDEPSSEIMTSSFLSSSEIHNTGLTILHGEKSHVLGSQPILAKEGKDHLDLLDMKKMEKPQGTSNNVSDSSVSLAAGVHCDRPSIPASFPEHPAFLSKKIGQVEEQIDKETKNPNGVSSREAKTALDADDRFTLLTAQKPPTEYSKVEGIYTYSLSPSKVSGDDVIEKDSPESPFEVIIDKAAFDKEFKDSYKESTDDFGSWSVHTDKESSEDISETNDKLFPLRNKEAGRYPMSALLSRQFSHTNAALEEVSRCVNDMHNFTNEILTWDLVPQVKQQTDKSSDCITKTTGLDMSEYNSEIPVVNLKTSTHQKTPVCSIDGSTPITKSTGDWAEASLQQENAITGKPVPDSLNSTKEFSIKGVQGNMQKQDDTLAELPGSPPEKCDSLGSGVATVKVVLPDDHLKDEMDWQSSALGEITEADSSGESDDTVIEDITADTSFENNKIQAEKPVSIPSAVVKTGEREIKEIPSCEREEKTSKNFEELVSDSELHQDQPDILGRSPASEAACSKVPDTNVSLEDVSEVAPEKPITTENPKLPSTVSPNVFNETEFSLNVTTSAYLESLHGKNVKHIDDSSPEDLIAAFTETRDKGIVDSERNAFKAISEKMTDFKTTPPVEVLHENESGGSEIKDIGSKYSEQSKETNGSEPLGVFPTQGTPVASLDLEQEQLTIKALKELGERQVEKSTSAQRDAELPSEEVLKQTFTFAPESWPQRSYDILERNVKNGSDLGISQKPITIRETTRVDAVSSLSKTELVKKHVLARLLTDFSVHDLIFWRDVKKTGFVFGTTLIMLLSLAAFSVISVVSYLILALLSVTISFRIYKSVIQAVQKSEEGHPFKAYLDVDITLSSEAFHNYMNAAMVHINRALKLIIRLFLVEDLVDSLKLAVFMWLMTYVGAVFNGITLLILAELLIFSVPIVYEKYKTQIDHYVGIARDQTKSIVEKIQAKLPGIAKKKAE
# [6] = target: proteins of HEK293T cells transiently overexpressing caspase-6 (Homo sapiens, UniProt Q9NX40); conditions: protein OCIAD1 (Q9NX40); exp_ref Probe; analysis C6
# [7] = target: proteins of HEK293T cells transiently overexpressing caspase-6 (Homo sapiens, UniProt Q96SB4); conditions: protein SRPK1 (Q96SB4); exp_ref Probe; analysis C6
# [8] = target: proteins of HEK293T cells transiently overexpressing caspase-6 (Homo sapiens, UniProt Q99714); conditions: exp_ref Probe; protein HSD17B10 (Q99714); analysis C6
# [9] = target: proteins of HEK293T cells transiently overexpressing caspase-6 (Homo sapiens, UniProt P09651); conditions: protein HNRNPA1 (P09651)
# [10] = target: proteins of HEK293T cells transiently overexpressing caspase-6 (Homo sapiens, UniProt P24752); conditions: Probe; protein ACAT1 P24752
# [11] = target: proteins of HEK293T cells transiently overexpressing caspase-6 (Homo sapiens, UniProt P12268); conditions: exp_ref Probe; protein IMPDH2 (P12268); analysis C6
# [12] = target: proteins of HEK293T cells transiently overexpressing caspase-6 (Homo sapiens, UniProt P17987); conditions: protein TCP1 (P17987)
# Sequence of proteins of HEK293T cells transiently overexpressing caspase-6 (Homo sapiens, UniProt P17987) (P17987 whole entry): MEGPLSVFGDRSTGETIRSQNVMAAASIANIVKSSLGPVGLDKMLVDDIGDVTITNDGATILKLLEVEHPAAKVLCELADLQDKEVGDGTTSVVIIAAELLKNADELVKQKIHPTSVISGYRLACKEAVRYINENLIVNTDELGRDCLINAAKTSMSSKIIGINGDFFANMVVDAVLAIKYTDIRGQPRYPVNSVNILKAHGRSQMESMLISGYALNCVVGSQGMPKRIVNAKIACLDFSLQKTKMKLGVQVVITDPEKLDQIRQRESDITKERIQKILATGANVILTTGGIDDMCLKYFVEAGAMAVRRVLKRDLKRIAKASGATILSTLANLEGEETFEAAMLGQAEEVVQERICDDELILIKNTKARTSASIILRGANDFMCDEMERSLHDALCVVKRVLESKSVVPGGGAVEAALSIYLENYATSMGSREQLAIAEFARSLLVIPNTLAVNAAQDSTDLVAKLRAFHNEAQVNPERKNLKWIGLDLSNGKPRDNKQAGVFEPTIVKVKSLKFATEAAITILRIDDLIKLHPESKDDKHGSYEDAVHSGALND
# Sequence of proteins of HEK293T cells transiently overexpressing caspase-6 (Homo sapiens, UniProt P09651) (P09651 whole entry): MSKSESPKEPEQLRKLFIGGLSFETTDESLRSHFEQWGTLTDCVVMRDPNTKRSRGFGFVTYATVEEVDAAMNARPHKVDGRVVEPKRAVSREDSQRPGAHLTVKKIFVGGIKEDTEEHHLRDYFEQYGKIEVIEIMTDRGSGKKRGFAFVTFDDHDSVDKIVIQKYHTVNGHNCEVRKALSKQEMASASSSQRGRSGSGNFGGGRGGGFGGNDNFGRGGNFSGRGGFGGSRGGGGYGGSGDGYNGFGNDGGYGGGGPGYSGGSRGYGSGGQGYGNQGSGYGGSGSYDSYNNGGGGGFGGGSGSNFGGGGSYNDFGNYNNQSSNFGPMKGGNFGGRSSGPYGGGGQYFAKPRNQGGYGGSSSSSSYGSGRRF
# Sequence of proteins of HEK293T cells transiently overexpressing caspase-6 (Homo sapiens, UniProt P36871) (P36871 whole entry): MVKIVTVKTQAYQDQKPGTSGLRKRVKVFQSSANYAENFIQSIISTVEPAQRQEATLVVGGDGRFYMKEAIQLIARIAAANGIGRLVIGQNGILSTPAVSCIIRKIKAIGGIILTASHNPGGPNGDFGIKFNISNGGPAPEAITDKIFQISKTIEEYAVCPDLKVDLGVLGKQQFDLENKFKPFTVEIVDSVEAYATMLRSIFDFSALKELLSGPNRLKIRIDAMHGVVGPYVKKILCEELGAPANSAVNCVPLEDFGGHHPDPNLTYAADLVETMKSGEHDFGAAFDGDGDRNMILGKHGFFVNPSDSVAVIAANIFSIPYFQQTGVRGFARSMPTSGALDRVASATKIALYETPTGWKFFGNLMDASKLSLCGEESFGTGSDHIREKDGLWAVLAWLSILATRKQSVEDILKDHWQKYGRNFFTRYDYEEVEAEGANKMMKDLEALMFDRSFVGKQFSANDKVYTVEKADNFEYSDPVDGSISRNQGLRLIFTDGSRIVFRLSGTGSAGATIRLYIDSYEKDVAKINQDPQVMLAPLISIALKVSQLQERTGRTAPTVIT
# Sequence of proteins of HEK293T cells transiently overexpressing caspase-6 (Homo sapiens, UniProt Q96SB4) (Q96SB4 whole entry): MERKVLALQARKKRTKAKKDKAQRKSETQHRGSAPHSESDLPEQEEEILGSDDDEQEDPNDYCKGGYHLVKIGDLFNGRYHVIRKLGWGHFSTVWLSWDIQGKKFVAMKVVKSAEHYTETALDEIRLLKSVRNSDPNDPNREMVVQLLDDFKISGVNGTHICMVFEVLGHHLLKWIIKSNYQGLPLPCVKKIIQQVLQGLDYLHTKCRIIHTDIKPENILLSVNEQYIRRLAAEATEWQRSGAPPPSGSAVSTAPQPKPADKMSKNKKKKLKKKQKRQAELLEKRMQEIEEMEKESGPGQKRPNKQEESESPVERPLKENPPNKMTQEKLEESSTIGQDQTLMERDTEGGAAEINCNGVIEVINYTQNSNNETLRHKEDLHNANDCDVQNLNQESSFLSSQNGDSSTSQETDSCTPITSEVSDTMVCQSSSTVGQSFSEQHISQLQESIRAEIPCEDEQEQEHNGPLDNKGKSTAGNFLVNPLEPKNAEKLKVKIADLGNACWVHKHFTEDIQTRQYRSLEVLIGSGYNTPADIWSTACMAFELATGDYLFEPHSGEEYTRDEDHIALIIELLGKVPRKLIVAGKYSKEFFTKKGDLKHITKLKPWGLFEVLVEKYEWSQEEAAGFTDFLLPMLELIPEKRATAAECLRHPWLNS
# Sequence of proteins of HEK293T cells transiently overexpressing caspase-6 (Homo sapiens, UniProt Q99714) (Q99714 whole entry): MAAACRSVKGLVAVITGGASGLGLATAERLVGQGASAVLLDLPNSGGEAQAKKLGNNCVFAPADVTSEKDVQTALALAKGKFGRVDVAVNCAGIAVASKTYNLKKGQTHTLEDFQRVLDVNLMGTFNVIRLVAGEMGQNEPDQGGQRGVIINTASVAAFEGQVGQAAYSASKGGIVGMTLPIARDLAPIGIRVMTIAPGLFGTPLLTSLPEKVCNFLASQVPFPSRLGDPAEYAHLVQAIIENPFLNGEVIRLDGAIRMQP
# Sequence of proteins of HEK293T cells transiently overexpressing caspase-6 (Homo sapiens, UniProt P54886) (P54886 whole entry): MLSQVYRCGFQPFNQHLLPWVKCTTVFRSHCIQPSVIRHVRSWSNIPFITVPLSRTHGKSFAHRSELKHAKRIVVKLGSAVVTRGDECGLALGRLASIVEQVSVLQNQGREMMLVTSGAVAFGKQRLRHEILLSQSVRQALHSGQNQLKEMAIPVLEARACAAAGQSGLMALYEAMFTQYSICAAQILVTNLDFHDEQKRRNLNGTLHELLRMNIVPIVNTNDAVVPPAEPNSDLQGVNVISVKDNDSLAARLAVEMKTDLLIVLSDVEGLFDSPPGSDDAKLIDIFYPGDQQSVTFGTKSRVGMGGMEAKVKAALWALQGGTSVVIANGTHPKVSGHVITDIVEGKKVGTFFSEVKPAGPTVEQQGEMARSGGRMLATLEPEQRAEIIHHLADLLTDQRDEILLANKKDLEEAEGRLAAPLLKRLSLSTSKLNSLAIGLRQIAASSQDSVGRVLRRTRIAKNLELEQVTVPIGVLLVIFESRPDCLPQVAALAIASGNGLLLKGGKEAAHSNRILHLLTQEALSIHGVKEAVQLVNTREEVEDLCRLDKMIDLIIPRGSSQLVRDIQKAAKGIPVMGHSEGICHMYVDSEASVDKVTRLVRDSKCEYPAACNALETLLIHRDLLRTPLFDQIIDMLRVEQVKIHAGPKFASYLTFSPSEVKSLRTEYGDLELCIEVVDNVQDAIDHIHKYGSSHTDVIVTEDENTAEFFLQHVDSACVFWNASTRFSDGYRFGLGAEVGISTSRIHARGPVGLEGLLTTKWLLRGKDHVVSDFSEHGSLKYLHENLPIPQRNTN
# Sequence of proteins of HEK293T cells transiently overexpressing caspase-6 (Homo sapiens, UniProt Q9NX40) (Q9NX40 whole entry): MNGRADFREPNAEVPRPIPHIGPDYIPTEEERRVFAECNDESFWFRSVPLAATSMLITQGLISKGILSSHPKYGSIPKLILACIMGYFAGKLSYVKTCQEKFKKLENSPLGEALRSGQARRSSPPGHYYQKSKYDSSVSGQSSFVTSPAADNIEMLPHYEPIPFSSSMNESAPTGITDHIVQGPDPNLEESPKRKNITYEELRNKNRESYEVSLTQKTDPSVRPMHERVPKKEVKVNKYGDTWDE
# Sequence of proteins of HEK293T cells transiently overexpressing caspase-6 (Homo sapiens, UniProt P24752) (P24752 34-427): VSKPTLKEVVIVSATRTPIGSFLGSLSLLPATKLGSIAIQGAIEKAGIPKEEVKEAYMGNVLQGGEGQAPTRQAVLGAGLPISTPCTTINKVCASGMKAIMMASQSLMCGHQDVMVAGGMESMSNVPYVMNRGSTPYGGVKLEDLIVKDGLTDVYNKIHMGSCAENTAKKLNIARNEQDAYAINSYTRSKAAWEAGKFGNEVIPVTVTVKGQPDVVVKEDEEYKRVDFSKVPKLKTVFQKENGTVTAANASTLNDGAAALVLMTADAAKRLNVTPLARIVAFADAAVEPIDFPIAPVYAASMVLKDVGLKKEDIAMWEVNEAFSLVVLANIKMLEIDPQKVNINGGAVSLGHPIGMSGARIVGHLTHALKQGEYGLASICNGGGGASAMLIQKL
compound,measurement,setting,value
C#CCOc1ccc([C@@H]2C[C@@H](C(=O)Nc3ccc(OC(F)(F)F)cc3)CN(S(=O)(=O)C=C)C2)cc1 (relative stereo) [13-t],enrich.exp.med.lin,[1]; Expt Probe,7.305
same,enrich.exp.med.log2,[1]; Expt Probe,2.869
same,enrich.exp.med,[1]; exp_ref Probe,2.869
same,enrich.exp.med,[2],0.3406
same,enrich.exp.med,[3],1.9053
same,enrich.exp.med,"[4]; Probe, protein FHL1 Q13642",-0.95
same,enrich.exp.med.lin,[4]; protein FHL1 (Q13642),0.5176
same,enrich.exp.med.log2,[4]; protein FHL1 (Q13642),-0.95
same,enrich.exp.med.lin,[5],5.629
same,enrich.exp.med.log2,[5],2.493
same,enrich.exp.med.lin,"[5]; Expt Probe, analysis C6",5.629
same,enrich.exp.med.log2,"[5]; Expt Probe, analysis C6",2.493
same,enrich.exp.med,"[5]; exp_ref Probe, analysis C6",2.493
same,enrich.exp.med,[6],2.033
same,enrich.exp.med,[7],1.262
same,enrich.exp.med,[8],0.1684
same,enrich.exp.med,"[9]; exp_ref Probe, analysis C6",0.3216
same,enrich.exp.med.lin,[9],1.2497
same,enrich.exp.med.log2,[9],0.3216
same,enrich.exp.med,[10],-1.066
same,enrich.exp.med,[11],0.7134
same,enrich.exp.med,"[12]; exp_ref Probe, analysis C6",0.8619
same,enrich.exp.med.lin,[12],1.8174
same,enrich.exp.med.log2,[12],0.8619
